In brackets after ≈: the same amount, converted by molar mass. Activity calls are given as the source filed them. No cut-off for these calls is given here.

The values below come from ChEMBL document CHEMBL1255322, “In vivo therapeutic effect of gatifloxacin on BALB/c mice infected with Nocardia brasiliensis” (Antimicrob Agents Chemother, 2008).

Data set [1] relates to Nocardia brasiliensis. Put plainly: Antimicrobial activity against Nocardia brasiliensis HUJEG-1 by broth macrodilution method. The class given is functional.
Data set [2] deals with Nocardia brasiliensis. Put plainly: Antimicrobial activity against Nocardia brasiliensis HUJEG-1 infected in BALB/c mouse assessed as decrease in number of lesions on foot-pad at 100 mg/kg, sc TID for 4 weeks. The class given is functional, organism-based. Set-up: dose 100 mg/kg.
Data set [3] in a line: Cmax in BALB/c mouse serum at 100 mg/kg, sc TID for 4 weeks by HPLC method. The class given is ADME, organism-based. Also on record: dose 100 mg/kg, route subcutaneous.
A short description of data set [4]: Cmax in BALB/c mouse serum at 25 mg/kg, sc TID for 4 weeks by HPLC method. It counts as ADME, organism-based. Set-up: dose 25 mg/kg, route subcutaneous.
Data set [5] concerns Nocardia brasiliensis. Description: Antimicrobial activity against Nocardia brasiliensis HUJEG-1 infected in BALB/c mouse assessed as decrease in number of lesions on foot-pad at 25 mg/kg, sc TID for 4 weeks. It counts as functional, organism-based. Also on record: dose 25 mg/kg.

`COc1c(N2C[C@@H]3CCCN[C@@H]3C2)c(F)cc2c(=O)c(C(=O)O)cn(C3CC3)c12`: the outcome in the data set on Nocardia brasiliensis [1] was Active.
With `C[C@H]1NCc2cc(-c3ccc4c(=O)c(C(=O)O)cn(C5CC5)c4c3OC(F)F)ccc21`, in the data set with Nocardia brasiliensis [1], the outcome was Active.
With `COc1c(N2CCNC(C)C2)c(F)cc2c(=O)c(C(=O)O)cn(C3CC3)c12` (stereo not drawn) [GATIFLOXACIN], the outcome with Nocardia brasiliensis [2] was Active. Also, in the data set on Nocardia brasiliensis [1], the MIC (as a rule, the lowest concentration that inhibits growth of the organism) is 0.25 µg/mL (≈ 0.666 µM). For the same compound, the concentration in data set [3] peaked (Cmax) at 18000 ng/mL.
Take `CC(=O)NC[C@H]1CN(c2ccc(N3CCOCC3)c(F)c2)C(=O)O1` [LINEZOLID]: the highest level in data set [4] (Cmax) was 50000 ng/mL. Further, the MIC against Nocardia brasiliensis [1] was 0.12 µg/mL (≈ 0.356 µM). Besides, the outcome in the data set with Nocardia brasiliensis [5] was inactive.
